The record followed here is patent US20240174718A1, “RYANODINE RECEPTOR INHIBITOR COMPOUNDS AND METHODS RELATING THERETO” (Vanderbilt University, priority 2022, published 2024).

In data set [1] the target is T1, RyR2 (Mus musculus, UniProt E9Q401).
T1 construct: spontaneous openings of intracellular RyR2 Ca^2+ release channels; endogenous in cells; host or cells: ventricular cardiomyocytes isolated from Casq2-/- mice (saponin-permeabilized in A1, intact in A7)
The data set can be described thus: Calcium spark frequency in permeabilized Casq2 knockout cardiomyocytes (screen for RyR2 activity). The data set is classed as cell-based. The protocol:
FIGS. 3(A)-3(E) show a biological screen for cardiac ryanodine receptor (RyR2) activity. Note that ‘ent-24’=9, and ‘ent-18’ refers to structure 8 in FIG. 1, which is also the enantiomer of a natural product. (3A) Calcium spark frequency in permeabilized murine cardiomyocytes was recorded as an index of RyR2 activity. Compounds were screened at 25 uM concentration after 10-minute incubation. *=p<0.001 by one-way ANOVA with Tukey's post-hoc test. (3B) Incubation time was extended to 60 minutes for the 12- and 30-membered rings. (3C) The seco-acid precursors to 12- and 18-membered rings were tested at 25 uM. (3D) Concentration response curve for the 18-membered ring and (3E) 24-membered ring. Cells were incubated for 30 minutes
Activity of Ring-Size Analogues. […] Ventricular cardiomyocytes were isolated, permeabilized with saponin, and incubated with vehicle (DMSO) or 25 μM of selected compound. RyR2 activity was measured in the form of calcium sparks, which are elementary Ca^2+ release events generated by spontaneous openings of intracellular RyR2 Ca^2+ release channels. Importantly, saponin selectively permeabilizes the sarcolemmal membrane, leaving the SR membrane intact and ensuring equivalent access of the compounds to the SR membrane where RyR2 resides.
The compounds were first screened by incubating cardiomyocytes for 10 minutes at 25 μM concentration and compared to vehicle (DMSO) conditions.

Data set [2] has as its target T2, RyR2 (Sus scrofa, UniProt A0A5G2R1W3).
T2 construct: isolated SR vesicles derived from porcine cardiac muscle; from tissue; host or cells: porcine heart (cardiac sarcoplasmic reticulum vesicles)
The data set can be described thus: [3H]ryanodine ligand binding assay in cardiac SR vesicles. Further details: species or system porcine. To be noted: relative to vehicle (DMSO). The protocol: RyR2 activity was quantified by the fraction of [^3H]ryanodine bound to RyR2. […] Data are shown as mean±SD (n=6).
[^3H]ryanodine ligand binding assay—[^3H]ryanodine, [9,21-3H(N)] (56 Ci/mmol) was obtained from PerkinElmer. Porcine cardiac SR vesicles were isolated as previously described (Fruen et al., 2000) and incubated with, 200 nM CaM binding peptide, 0.1 μM CaCl2, 20 mM PIPES, 150 mM KCl, 5 mM GSH, 0.1 mg/mL BSA, 1 μg/mL aprotininin, lug/mL leupeptin, and 1 μM DTT for 30 min at 37° C. […] In 96-well plates, cardiac SR membranes (CSR, 3 mg/mL) were pre-incubated with 1% v/v ent-B1 (to yield the indicated drug concentrations) for 30 min, at 22° C., in a solution containing 150 mM KCl, 5 mM GSH, 1 μg/mL Aprotinin/Leupeptin, 1 mM EGTA, and 23 μM or 1.62 mM CaCl2 (100 nM or 30 μM free Ca^2+, respectively as determined by MaxChelator), 0.1 mg/mL BSA, and 20 mM K-PIPES (pH 7.0). Non-specific [^3H]ryanodine binding to SR was assessed by addition of 15 μM non-radioactive ryanodine. Maximal [^3H]ryanodine binding was assessed by addition of 5 mM adenylyl-imidodiphosphate (AMP-PNP), supplemented with 20 mM caffeine. […] Binding of [^3H]ryanodine (7.5 nM) was determined following a 3 h incubation at 37° C. and filtration through grade GF/B glass microfiber filters (Brandel Inc., Gaithersburg, MD, US) using a M96T-Brandel Harvester. […]

The nature of another data set: Plasma stability ex vivo. The conditions noted are these: mouse; murine plasma, 37° C., two hours; read-out: parent compound remaining in plasma. The data set is classed as in vitro ADME. The protocol:
FIGS. 11(A-B) show in vivo pharmacokinetics in mice for a compound of the present invention. […] N=3 mice. Plasma collected serially at 0.167, 0.333. 0.5, 1, 3, and 8 hours post-administration. […] Individual data points (grey) shown alongside mean values with connecting lines.
Plasma stability experiments—Drug-free mouse plasma was preincubated in a 96-well polypropylene plate for 30 minutes on a microplate shaker at 37° C. prior to the addition of ent-B1 (final concentration 1900 ng/mL). Drug was added to individual wells (n=3 per compound), mixed thoroughly, and 50 μL of plasma was removed at 0, 15, 30, 45 60, 90, and 120 minutes to evaluate compound stability in mouse plasma at 37° C. Samples removed at each time point were transferred to a 96-well polypropylene plate containing 300 μL of ice-cold acetonitrile containing internal standard (ent-verticilide-d12; 100 ng/mL). Samples were mixed multiple times with a pipette to ensure precipitation of plasma proteins and the plate was covered with an adhesive film to prevent solvent evaporation. […] Peak area ratios of the analyte and internal standard for each sample were analyzed by liquid chromatography coupled to tandem mass spectrometry (LC-MS/MS) and normalized to the area ratio for time point 0 (baseline) to calculate the percent of ent-B1 remaining at each time point. […]

Several values for one entry are separate records, joined by “and”; a condition that tells them apart may be missing. Equal entries are not always repeated.

T1 sequence (E9Q401 whole entry): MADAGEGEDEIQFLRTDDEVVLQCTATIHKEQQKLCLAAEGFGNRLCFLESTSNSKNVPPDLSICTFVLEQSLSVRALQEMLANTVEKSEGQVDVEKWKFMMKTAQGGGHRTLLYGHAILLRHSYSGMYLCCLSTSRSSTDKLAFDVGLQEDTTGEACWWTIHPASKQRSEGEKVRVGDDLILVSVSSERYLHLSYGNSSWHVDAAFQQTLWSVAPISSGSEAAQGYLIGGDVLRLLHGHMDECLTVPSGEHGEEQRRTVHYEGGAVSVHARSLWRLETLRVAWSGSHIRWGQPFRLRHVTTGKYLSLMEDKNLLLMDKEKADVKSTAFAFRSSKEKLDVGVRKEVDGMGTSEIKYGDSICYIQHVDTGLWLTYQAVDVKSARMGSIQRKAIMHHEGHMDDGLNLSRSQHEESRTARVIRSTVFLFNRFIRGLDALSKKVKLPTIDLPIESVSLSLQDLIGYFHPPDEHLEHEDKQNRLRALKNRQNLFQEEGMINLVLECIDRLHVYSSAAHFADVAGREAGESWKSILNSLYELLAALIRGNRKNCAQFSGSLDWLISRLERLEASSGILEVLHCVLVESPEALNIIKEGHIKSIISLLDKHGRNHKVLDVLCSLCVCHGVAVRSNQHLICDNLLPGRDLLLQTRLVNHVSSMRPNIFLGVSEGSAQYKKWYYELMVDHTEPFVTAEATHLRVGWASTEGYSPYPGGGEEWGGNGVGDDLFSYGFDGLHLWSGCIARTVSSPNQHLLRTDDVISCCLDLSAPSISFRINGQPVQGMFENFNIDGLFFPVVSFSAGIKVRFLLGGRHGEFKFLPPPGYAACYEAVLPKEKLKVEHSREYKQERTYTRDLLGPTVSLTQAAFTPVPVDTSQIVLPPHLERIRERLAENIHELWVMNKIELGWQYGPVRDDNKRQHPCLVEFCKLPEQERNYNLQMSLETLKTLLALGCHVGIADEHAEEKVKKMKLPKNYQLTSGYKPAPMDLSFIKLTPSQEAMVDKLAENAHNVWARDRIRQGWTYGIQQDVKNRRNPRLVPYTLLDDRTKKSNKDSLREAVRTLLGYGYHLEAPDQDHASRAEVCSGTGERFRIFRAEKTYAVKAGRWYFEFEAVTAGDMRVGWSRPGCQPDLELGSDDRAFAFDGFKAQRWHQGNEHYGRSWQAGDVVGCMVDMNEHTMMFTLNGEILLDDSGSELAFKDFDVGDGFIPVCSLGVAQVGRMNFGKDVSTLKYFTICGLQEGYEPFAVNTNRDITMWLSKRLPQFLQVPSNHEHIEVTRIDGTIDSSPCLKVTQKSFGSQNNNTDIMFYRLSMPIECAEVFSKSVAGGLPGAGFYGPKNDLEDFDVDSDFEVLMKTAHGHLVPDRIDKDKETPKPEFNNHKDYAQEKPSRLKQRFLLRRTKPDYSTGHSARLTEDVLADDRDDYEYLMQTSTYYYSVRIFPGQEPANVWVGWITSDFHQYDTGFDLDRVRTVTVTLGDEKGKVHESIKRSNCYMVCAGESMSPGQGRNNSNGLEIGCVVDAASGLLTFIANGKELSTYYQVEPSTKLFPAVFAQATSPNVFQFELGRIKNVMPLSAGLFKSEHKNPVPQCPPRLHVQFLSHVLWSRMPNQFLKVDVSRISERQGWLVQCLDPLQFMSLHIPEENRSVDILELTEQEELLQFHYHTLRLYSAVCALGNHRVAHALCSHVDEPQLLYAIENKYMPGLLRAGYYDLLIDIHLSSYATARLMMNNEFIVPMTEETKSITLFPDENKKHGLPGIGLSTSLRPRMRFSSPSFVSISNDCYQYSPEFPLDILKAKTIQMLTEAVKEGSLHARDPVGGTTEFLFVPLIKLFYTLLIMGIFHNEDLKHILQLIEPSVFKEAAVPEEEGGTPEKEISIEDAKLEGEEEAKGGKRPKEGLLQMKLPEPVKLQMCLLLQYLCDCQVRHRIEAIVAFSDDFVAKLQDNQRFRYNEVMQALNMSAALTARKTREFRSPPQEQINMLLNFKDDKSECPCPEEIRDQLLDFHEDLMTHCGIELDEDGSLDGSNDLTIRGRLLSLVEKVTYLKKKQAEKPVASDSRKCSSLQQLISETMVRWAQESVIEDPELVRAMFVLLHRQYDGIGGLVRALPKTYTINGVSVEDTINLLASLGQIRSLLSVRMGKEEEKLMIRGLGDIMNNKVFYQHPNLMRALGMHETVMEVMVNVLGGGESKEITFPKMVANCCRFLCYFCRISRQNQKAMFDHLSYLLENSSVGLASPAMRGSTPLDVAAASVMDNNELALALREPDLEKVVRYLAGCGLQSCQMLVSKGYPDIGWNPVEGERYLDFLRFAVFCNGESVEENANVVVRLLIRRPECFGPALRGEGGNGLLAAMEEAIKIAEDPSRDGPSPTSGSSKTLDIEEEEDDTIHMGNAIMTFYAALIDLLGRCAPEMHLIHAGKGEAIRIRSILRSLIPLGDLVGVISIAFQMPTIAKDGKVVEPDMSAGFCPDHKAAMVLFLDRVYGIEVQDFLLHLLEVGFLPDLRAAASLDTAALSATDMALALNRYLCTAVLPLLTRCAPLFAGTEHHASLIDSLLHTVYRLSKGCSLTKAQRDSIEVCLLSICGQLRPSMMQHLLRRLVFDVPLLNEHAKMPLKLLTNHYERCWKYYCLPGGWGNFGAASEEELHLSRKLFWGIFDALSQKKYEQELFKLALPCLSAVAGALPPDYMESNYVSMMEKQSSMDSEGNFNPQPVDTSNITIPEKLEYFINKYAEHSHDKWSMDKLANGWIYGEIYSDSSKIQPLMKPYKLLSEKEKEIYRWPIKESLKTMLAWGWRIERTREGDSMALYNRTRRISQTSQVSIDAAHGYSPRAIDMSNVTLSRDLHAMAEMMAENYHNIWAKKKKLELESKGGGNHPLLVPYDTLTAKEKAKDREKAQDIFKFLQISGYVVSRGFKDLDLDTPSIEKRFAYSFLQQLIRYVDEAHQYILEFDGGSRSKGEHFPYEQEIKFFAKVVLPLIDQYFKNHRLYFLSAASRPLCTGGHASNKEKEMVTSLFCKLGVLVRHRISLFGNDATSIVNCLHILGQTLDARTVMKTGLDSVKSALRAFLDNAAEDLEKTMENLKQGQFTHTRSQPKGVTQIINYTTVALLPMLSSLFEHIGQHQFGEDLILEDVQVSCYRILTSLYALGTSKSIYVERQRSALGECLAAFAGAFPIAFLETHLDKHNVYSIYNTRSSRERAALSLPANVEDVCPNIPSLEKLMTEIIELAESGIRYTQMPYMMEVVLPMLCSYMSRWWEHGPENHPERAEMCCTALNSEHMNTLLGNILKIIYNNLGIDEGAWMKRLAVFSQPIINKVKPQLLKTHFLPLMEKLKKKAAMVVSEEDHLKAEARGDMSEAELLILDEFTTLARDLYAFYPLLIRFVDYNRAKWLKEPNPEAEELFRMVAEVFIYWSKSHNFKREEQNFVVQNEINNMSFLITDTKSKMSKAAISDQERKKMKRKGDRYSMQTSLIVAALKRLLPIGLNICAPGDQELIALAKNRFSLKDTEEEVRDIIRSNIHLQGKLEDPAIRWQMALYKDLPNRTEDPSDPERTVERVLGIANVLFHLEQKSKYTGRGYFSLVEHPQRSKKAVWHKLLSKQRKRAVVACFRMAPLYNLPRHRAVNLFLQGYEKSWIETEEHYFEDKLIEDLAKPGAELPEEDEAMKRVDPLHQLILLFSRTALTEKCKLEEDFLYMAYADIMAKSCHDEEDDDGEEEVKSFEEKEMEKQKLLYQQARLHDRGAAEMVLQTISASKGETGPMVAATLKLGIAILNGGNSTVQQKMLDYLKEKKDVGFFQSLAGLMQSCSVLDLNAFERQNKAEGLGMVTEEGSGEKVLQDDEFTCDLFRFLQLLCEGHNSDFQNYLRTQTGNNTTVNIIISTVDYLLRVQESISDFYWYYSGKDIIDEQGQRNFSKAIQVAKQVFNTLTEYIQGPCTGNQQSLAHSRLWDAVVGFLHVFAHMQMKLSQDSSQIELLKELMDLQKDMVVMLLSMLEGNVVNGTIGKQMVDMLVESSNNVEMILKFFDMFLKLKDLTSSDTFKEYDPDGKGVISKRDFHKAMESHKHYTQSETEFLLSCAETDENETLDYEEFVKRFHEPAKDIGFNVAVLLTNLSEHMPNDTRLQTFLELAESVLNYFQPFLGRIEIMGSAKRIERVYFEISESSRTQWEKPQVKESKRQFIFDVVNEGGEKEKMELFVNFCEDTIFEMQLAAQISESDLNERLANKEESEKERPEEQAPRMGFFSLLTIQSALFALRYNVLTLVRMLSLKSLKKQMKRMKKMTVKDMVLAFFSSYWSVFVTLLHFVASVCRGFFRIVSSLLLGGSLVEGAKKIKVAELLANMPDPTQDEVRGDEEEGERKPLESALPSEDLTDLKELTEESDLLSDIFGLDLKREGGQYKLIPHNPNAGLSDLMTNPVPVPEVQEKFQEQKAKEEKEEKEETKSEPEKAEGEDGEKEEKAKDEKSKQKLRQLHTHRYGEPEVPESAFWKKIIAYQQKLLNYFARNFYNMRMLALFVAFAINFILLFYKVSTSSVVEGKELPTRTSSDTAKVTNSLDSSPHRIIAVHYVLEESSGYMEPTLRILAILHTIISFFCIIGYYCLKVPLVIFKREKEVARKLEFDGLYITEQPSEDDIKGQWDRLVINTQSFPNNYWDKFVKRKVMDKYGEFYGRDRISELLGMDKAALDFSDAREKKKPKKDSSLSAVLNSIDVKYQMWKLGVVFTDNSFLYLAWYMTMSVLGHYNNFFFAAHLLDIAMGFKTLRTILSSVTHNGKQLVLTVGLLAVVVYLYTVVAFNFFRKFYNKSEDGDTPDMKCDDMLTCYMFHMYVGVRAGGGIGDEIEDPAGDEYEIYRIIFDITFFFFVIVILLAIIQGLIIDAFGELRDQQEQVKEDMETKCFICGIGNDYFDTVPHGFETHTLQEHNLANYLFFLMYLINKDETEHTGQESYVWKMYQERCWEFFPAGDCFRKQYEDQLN

A word on the IC50: it is the concentration needed to halve the response being measured. High values mean weaker potency in that assay, low ones greater potency in that assay. As usually defined, the amount remaining is what is left of the initial amount, in per cent. Regarding `CCCCC[C@@H]1OC(=O)[C@@H](C)N(C)C(=O)[C@H](CCCCC)OC(=O)[C@@H](C)N(C)C(=O)[C@H](CCCCC)OC(=O)[C@@H](C)N(C)C1=O` (single isomer, unassigned) [ent-B1], the “RyR2-mediated Ca2+ spark frequency” value at RyR2 [1] (25 μM, 10 minutes incubation, vs vehicle (DMSO)) is “significantly inhibited”. Also, the “activity in the calcium spark assay (summary statement)” value is “potent inhibitor” at RyR2 [1] (listed as 8) and “potent” on RyR2 [1] (listed as 18-membered COD). In addition, at RyR2 [2], the IC50 is 1900 nM and 1930 nM. In the data set “Plasma stability ex vivo”, the share remaining at 2 h, 1900 ng/mL was ~95%.
